Measured values as given in the supplement of paper PMC10307832.

What was measured:
Experiment in all cases: relative viability (nuclei count vs DMSO), 5 days (fraction); higher = more cells survive
KIN001-266 + Luminespib = compound: CCN1CCC(CC1)N2C=C(N=N2)CNC3=CC4=C(C(=CN=C4C(=C3)Cl)C#N)NC5=CC(=C(C=C5)F)Cl [KIN001-266] + CCNC(=O)c1noc(-c2cc(C(C)C)c(O)cc2O)c1-c1ccc(CN2CCOCC2)cc1 [Luminespib] (partner 0.01 µM)
Method in brief: (§1)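 Values are medians from duplicate plates. Each reflects relative viability, defined as the nuclei count of treated wells over that of vehicle wells. Lung cancer cell lines in 1536-well plates were pin-tool dosed one day after seeding with one drug alone or with a fixed anchor-drug dose plus five library-drug doses (not always all listed) in √10 steps, then fixed, stained and imaged at 4× after 5 days.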

KIN001-266 + OSI-027 = compound: CCN1CCC(CC1)N2C=C(N=N2)CNC3=CC4=C(C(=CN=C4C(=C3)Cl)C#N)NC5=CC(=C(C=C5)F)Cl [KIN001-266] + COc1cccc2cc(-c3nc([C@H]4CC[C@H](C(=O)O)CC4)n4ncnc(N)c34)[nH]c12 [OSI-027] (partner 0.5 µM)
Method in brief: as §1

KIN001-266 + Lapatinib = compound: CCN1CCC(CC1)N2C=C(N=N2)CNC3=CC4=C(C(=CN=C4C(=C3)Cl)C#N)NC5=CC(=C(C=C5)F)Cl [KIN001-266] + CS(=O)(=O)CCNCc1ccc(-c2ccc3ncnc(Nc4ccc(OCc5cccc(F)c5)c(Cl)c4)c3c2)o1 [Lapatinib] (partner 2 µM)
Method in brief: as §1

KIN001-266 + Linsitinib = compound: CCN1CCC(CC1)N2C=C(N=N2)CNC3=CC4=C(C(=CN=C4C(=C3)Cl)C#N)NC5=CC(=C(C=C5)F)Cl [KIN001-266] + C[C@]1(O)C[C@@H](c2nc(-c3ccc4ccc(-c5ccccc5)nc4c3)c3c(N)nccn32)C1 [Linsitinib] (partner 1 µM)
Method in brief: as §1

Cell Line | relative viability (KIN001-266 + Luminespib; first compound 0.08 µM) | relative viability (KIN001-266 + Luminespib; first compound 0.253 µM) | relative viability (KIN001-266 + Luminespib; first compound 0.8 µM) | relative viability (KIN001-266 + Luminespib; first compound 2.53 µM) | relative viability (KIN001-266 + Luminespib; first compound 8 µM) | relative viability (KIN001-266 + OSI-027; first compound 0.08 µM) | relative viability (KIN001-266 + OSI-027; first compound 0.253 µM) | relative viability (KIN001-266 + OSI-027; first compound 2.53 µM) | relative viability (KIN001-266 + OSI-027; first compound 8 µM) | relative viability (KIN001-266 + Lapatinib; first compound 0.08 µM) | relative viability (KIN001-266 + Lapatinib; first compound 0.253 µM) | relative viability (KIN001-266 + Lapatinib; first compound 0.8 µM) | relative viability (KIN001-266 + Lapatinib; first compound 2.53 µM) | relative viability (KIN001-266 + Lapatinib; first compound 8 µM) | relative viability (KIN001-266 + Linsitinib; first compound 0.08 µM) | relative viability (KIN001-266 + Linsitinib; first compound 0.253 µM) | relative viability (KIN001-266 + Linsitinib; first compound 0.8 µM) | relative viability (KIN001-266 + Linsitinib; first compound 2.53 µM) | relative viability (KIN001-266 + Linsitinib; first compound 8 µM) | relative viability (KIN001-266 + OSI-027; first compound 0.8 µM)
PC-14 | 0.167 | 0.117 | 0.171 | 0.225 | 0.152 | 0.836 | 0.981 | 0.67 | 0.152 | 0.307 | 0.368 | 0.27 | 0.287 | 0.312 | 0.953 | 1.06 | 1.01 | 0.97 | 0.442 | –
HOP-62 | 0.906 | 0.923 | 0.876 | 0.944 | 0.787 | 0.888 | 0.893 | 0.765 | 0.797 | 0.944 | 0.801 | 1.13 | 0.815 | 1.09 | 0.961 | 1.01 | 1.09 | 0.945 | 0.439 | 0.877
NCI-H358 | 0.496 | 0.251 | 0.237 | 0.306 | 0.123 | 0.79 | 0.72 | 0.903 | 0.596 | 0.493 | 0.497 | 0.483 | 0.407 | 0.372 | 0.695 | 0.628 | 0.821 | 0.667 | 0.33 | 0.997
SK-MES-1 | 0.783 | 0.779 | 1.06 | 0.739 | 0.427 | 0.694 | 0.676 | 0.573 | 0.474 | 0.47 | 0.522 | 0.414 | 0.405 | 0.418 | 1.17 | 1.08 | 1.01 | 1 | 0.902 | 0.575
NCI-H1666 | 0.982 | 0.993 | 1.02 | 0.951 | 0.923 | 0.838 | 0.879 | 0.849 | 0.802 | 0.804 | 0.646 | 0.671 | 0.646 | 0.509 | 1.02 | 0.861 | 0.869 | 0.825 | 0.674 | 0.88
NCI-H1355 | 0.741 | 0.642 | 0.811 | 0.691 | 0.722 | 0.476 | 0.426 | 0.373 | 0.397 | 1.1 | 0.924 | 1.02 | 1.04 | 0.938 | 0.814 | 0.803 | 0.905 | 0.779 | 0.742 | 0.4
HCC-827 | 0.659 | 0.38 | 0.509 | 0.841 | 0.362 | 0.682 | 0.787 | 0.734 | 0.661 | 0.2 | 0.18 | – | 0.191 | 0.217 | 0.952 | 1.03 | – | 0.945 | 0.841 | 0.495
HARA | 0.704 | 0.718 | 0.395 | 0.878 | 0.307 | 0.559 | 0.644 | 0.501 | 0.276 | 0.929 | 0.689 | 0.842 | 0.823 | 0.657 | 0.863 | 0.851 | 0.925 | 0.935 | 0.735 | 0.395
NCI-H322M | 0.86 | 0.576 | 1.05 | 0.83 | 0.926 | 0.56 | 0.598 | 0.458 | 0.579 | 0.575 | 0.604 | 0.601 | 0.57 | 0.489 | 0.957 | 0.987 | 0.897 | 0.855 | 0.83 | 0.593
NCI-H2347 | 0.846 | 0.009 | 0.41 | 0.358 | 0.269 | 0.606 | 0.456 | 0.374 | 0.255 | 0.952 | 0.956 | 0.925 | 0.915 | 0.51 | 0.998 | 0.936 | 0.937 | 0.762 | 0.573 | 0.296
NCI-H1975 | 0.26 | 0.187 | 0.276 | 0.221 | 0.215 | 0.692 | 0.776 | 0.691 | 0.555 | 0.902 | 0.938 | 1.03 | 1.05 | 0.969 | 0.981 | 1.04 | 1.08 | 1.02 | 0.958 | 0.769
UMC-11 | 0.986 | 0.977 | 1.03 | 0.937 | 0.449 | 0.426 | 0.485 | 0.455 | 0.367 | 1.08 | 1.04 | 1.13 | 0.848 | 0.79 | 0.944 | 1.01 | 1.08 | 0.981 | 1.09 | 0.511
ABC-1 | 0.757 | 0.956 | 0.655 | 1.02 | 0.378 | 0.649 | 0.436 | 0.392 | 0.375 | 1.18 | 1.08 | 1.12 | 1.14 | 1.1 | 1.1 | 0.788 | 0.945 | 0.76 | 0.713 | 0.622
A-427 | 0.874 | 0.843 | 0.979 | 0.913 | 0.969 | 0.492 | 0.478 | 0.475 | 0.48 | 1.07 | 1.08 | 1.04 | 0.921 | 1.01 | 1.12 | 1.2 | 1.09 | 1.06 | 1.13 | 0.499
LCLC-97TM1 | 0.953 | 0.77 | 0.643 | 0.603 | 0.24 | 0.636 | 0.69 | 0.557 | 0.532 | 0.836 | 0.868 | 1.14 | 1.04 | 0.844 | 0.226 | 0.197 | 0.18 | 0.176 | 0.192 | 0.45
HCC-15 | 0.232 | 0.475 | 0.241 | 0.248 | 0.136 | 0.71 | 0.699 | 0.524 | 0.518 | 0.779 | 0.851 | 0.731 | 0.734 | 0.646 | 0.812 | 0.886 | 0.761 | 0.734 | 0.7 | 0.63
